Literature values as cited in PMC2217462 (The Journal of General Physiology, 2004).

How the values were obtained:
[1] = tested on: Kv2.1 channel, mutations at F274; conditions: mutations at F274 of Kv2.1; ref Li-Smerin and Swartz, 2000
[2] = tested on: Kv2.1 channel, basic substitutions at E277; conditions: substitution of basic residues at E277 of Kv2.1; ref Li-Smerin and Swartz, 2000

hanatoxin
fold increase in hanatoxin Kd [1]: ≤ 500 fold
fold increase in hanatoxin Kd [2]: ≤ 125 fold
